Patent US20040266811A1, “Methods for inducing regeneration, remyelination, and hypermyelination of nervous tissue” (priority 2002, published 2004)
Entries after “also recorded” stand apart in the source; their conditions may differ.

How the values were obtained:
recombinant FKBP52 = molecular target: T1, recombinant FKBP52 (Homo sapiens, UniProt Q02790); assay: Tryptophan fluorescence (QTFS) binding to recombinant FKBP52
T1 construct: other: QTFS, 18° C., unit not given; dissociation constant (kd) for FKBP52 by QTFS; other: QTFS; fused on or other part: probably GST at the N-terminus (pGEX-6p), as in b91 and the GST-alone control of b31
T1 sequence (Q02790 1-459): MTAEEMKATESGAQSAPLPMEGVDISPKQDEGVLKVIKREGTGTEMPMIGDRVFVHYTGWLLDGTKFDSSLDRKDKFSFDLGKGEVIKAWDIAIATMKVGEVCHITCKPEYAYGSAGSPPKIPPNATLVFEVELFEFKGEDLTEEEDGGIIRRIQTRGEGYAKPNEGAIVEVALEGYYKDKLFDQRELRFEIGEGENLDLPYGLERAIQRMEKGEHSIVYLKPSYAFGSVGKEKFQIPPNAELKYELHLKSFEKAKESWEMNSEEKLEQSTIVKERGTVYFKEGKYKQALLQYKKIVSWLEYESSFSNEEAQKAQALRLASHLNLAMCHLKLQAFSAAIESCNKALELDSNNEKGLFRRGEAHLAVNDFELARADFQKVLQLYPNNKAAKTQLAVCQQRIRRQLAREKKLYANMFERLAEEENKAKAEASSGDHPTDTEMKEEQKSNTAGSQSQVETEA

[1] = system: purified sensory neurons from DRG; assay: Neurite outgrowth in purified (neuron-enriched) sensory neuron cultures; type: cell-based, E18 C57B1/6 mice; details: 1 μM GM-284, 6 days
Protocol: To generate neuron-enriched DRG cultures, DRGs were isolated from embryonic (E18) C57B1/6 mice, and processed in dissection media containing Hank's CMF saline, with 0.05% collagenase and 0.25% trypsin, for 30 min at 37° C. Neurons were obtained by trituration of ganglia with fire-polished Pasteur pipettes of decreasing diameter. Thereafter, the cellular suspension was washed twice in Dulbecco's modified Eagle medium supplemented with 10% fetal calf serum and 2% glucose. Freshly triturated neurons were incubated in 10% FCS-DMEM supplemented with 5-fluorouracil (Sigma, F-0503) and uridine (Sigma, U3003) for 48 h to remove non-neuronal proliferating cells, in the presence of either 100 ng/ml NGF or 1 μM GM-284. After 48 h, cultures were continued with these agents, but without mitotic inhibitors, for an additional 6 days.
DRG explants are complex tissues, containing both Schwann cells and neurons. Accordingly, it is possible that GM-284 acts to promote neurite outgrowth directly, by acting on neurons, or indirectly, by acting on adjacent Schwann cells, which then act to promote neuritogenesis. To differentiate these possibilities, sensory neurons from DRG were purified as described (Wood et al., Studies of the initiation of myelination by Schwann cells. Ann. NY Acad. Sci., 605:1-14, 1990), and contaminating Schwann cells were removed by treatment of the cultures with anti-mitotic drugs.

DRG explants [2] = assay: Neurite outgrowth from DRG explants; type: cell-based, C57B1/6 mice; details: 1 μM GM-284, 96 h
Protocol: (A) DRGs were explanted and cultured alone, (panel i), in the presence of 100 ng/ml NGF (panel ii) or in the presence of 1 μM GM-284 (panel iii), for 96 h. At the end of the culture period, the tissue was fixed and stained for expression of neuron-specific β-III tubulin. […] (B) Both Schwann cells and neurons are present in DRG explants. To determine if the neuritogenic effects of GM-284 are direct, acting on neurons, or indirect, acting through Schwann cells, sensory neurons from E18 mice were isolated and treated with either NGF (left panel) or GM-284 (right panel) for 6 days.
Explanted DRG ganglia were dissected from P1 to P3 C57B1/6 mice, as previously described (Weinstein et al., Targeted expression of an oncogenic adaptor protein v-Crk potentiates axonal growth in dorsal root ganglia and motor neurons in vivo. Brain Res. Dev. Brain Res., 116:29-39, 1999). Briefly, DRGs were dissected and placed in ice-cold PBS containing 2% glucose, then transferred onto polyornithine/laminin-coated tissue culture plates (Biocoat, Becton Dickinson Laboratories) in DMEM-plating medium overnight. […] Cultures were kept at 37° C., in 5% CO2, for up to 1 week, at which time the extent of well-defined neurite outgrowth was assessed.

DRG explants [3] = assay: DRG explant neurite outgrowth with anti-NGF neutralizing antibodies or MEK1 inhibitor; type: cell-based, C57B1/6 mice; details: DRGs cultured in 1 μM GM-284 plus inhibitor
Protocol: (A) DRGs were prepared and cultured as above, except that either the MEK1 inhibitor, PD 098059, or NGF-neutralizing antibodies were included in cultures treated with either NGF or GM-284. Maximal response was determined to be the extent of neurite outgrowth when DRGs were cultured in NGF alone (spotted bars) or in 1 μM GM-284 (striped bars). As indicated, DRGs were treated with either NGF or GM-284, in the presence of either 0.25 mg/ml anti-NGF neutralizing antibodies or PD 098059. […] DRGs were treated with 100 ng/ml NGF or 1 μM GM-284, for 30 min or 4 h, as indicated, and the detergent lysates were prepared and immunoblotted with anti-phospho-Erk monoclonal antibody. The p42 and p44 bands are indicated by arrowheads.
Explanted DRG ganglia were dissected from P1 to P3 C57B1/6 mice, as previously described (Weinstein et al., Targeted expression of an oncogenic adaptor protein v-Crk potentiates axonal growth in dorsal root ganglia and motor neurons in vivo. Brain Res. Dev. Brain Res., 116:29-39, 1999). Briefly, DRGs were dissected and placed in ice-cold PBS containing 2% glucose, then transferred onto polyornithine/laminin-coated tissue culture plates (Biocoat, Becton Dickinson Laboratories) in DMEM-plating medium overnight. The plating medium consisted of Dulbecco's minimal essential plating medium (DMEM) supplemented with 10% fetal calf serum (FCS; Hyclone), 0.6% glucose, 2 mM glutamine, 100 U/ml penicillin, 100 μg/ml streptomycin, and 20 mM HEPES. […] For experiments employing anti-NGF neutralizing antibodies, cultures were incubated with […] anti-NGF antiserum, and replaced every two days. Cultures were kept at 37° C., in 5% CO2, for up to 1 week, at which time the extent of well-defined neurite outgrowth was assessed.
Signaling by the neurotrophins, while mediated by different cell-surface receptors, converges on the extensively studied and well-characterized MAP kinase pathway. […] Therefore, the inventors explored the possibility that GM-284 might signal through NGF directly, or through the MAP kinase cascade. […]

CCC(C)(C)C(=O)C(=O)N1CCC[C@H]1c1nnc([C@@H]2CCCN2C(=O)C(=O)C(C)(C)CC)o1 [GM-284]
disassociation constant (kd), binding affinity for recombinant FKBP52 (recombinant FKBP52; 18° C., unit not given): 139±16.2 | Kd (recombinant FKBP52; read-out: dissociation constant (kd) for FKBP52 by QTFS): 139 nM | neurite outgrowth in purified neuronal cultures [1]: complete failure to elaborate processes; also recorded: failed to promote axonogenesis; also recorded: no neurite outgrowth | neurite outgrowth from DRG explants (DRG explants [2]): as active as NGF in inducing neuritogenesis; also recorded: indistinguishable from NGF-treated sister explants; also recorded: comparable outgrowth in the NGF and GM-284 treated cultures | effect of anti-NGF / MEK1 inhibition on GM-284-mediated neurite outgrowth (DRG explants [3]): NGF- and MEK1-independent
